pIC50: −log10 of the molar value. Several values for one entry are separate records, joined by “and”; a condition that tells them apart may be missing. Equal values may be shown once. Read-outs that look alike come from different tables or passages of the source.
Tests used:
[1] = Trial of weekly pulse oral calcitriol: plasma/serum 1,25-dihydroxyvitamin D levels (radioimmunoassay, radioreceptor assay); assay type: in vivo, human; parameters: Mean 48 hour 1,25-dihydroxyvitamin D level: unit not given here; details: for Mean peak 1,25-dihydroxyvitamin D level: peak two hours after all pills; for Mean 48 hour 1,25-dihydroxyvitamin D level: trough approximately 48 hours later
Method: In this example a person with metastatic malignant melanoma of the right jaw received a dose of 37 mcg of calcitriol (Rocaltrol, Roche) administered as 74 tablets (0.5 mcg each tablet) divided into four nearly equal doses given in hour one, two, three and four. The patient received this same therapy on day 1, 8, 15 and 22, and observed until at least day 56. The level of calcitriol in a plasma sample obtained two hours after the last dose of calcitriol (on week one) was determined using a commercial assay at Endocrine Sciences, Inc. The level was 1826 pg/ml, compared to the range for calcitriol levels in normal controls being 21 to 65 pg/ml.
(§1) Patients were asked to maintain a reduced calcium diet for the four treatment weeks, with a goal of less than 500 mg per day, as described in Example 1. Calcitriol (Rocaltrol®, Roche Pharmaceuticals) was given orally once a week for four weeks. Each weekly dose was given in four divided doses given hourly over four hours. The starting dose was 0.06 μg/kg.
(§2) Complete blood count, serum creatinine, total serum bilirubin, ALT, alkaline phosphatase were monitored weekly. Serum calcium and phosphate were checked on the treatment day (day 1), and on days 2 and 3. Twenty-four hour urinary calcium excretion was measured on day 2. The 1,25-dihydroxyvitaunin D levels were measured by ^125I radioimmunoassay (Incstar, Stillwater, Minn.) and by a radioreceptor assay using calf thymus 1,25-dihydroxyvitamin D receptor (Endocrine Sciences, Calabasas Hills, Calif.). Peak levels were measured two hours after all the pills had been ingested. Trough levels were measured approximately 48 hours later.

ovarian cancer = details: continuous dose; cited from earlier work
myelodysplastic syndrome = details: 2 mcg daily for 8 weeks or longer, cited from earlier work
[2] = test system: hormone refractory prostate cancer; details: daily oral dose of 0.5-1.5 mcg, fourteen patients; cited from earlier work
[3] = test system: malignancy refractory to standard therapy; test: Trial of weekly pulse oral calcitriol: tumor response (WHO guidelines, tumor markers); assay type: in vivo, human
Method: (§3) Eligibility criteria included histologically confirmed malignancy refractory to standard therapy; age ≧18 years; expected survival of >2 months; ECOG performance status ≦2; hematocrit ≧30; serum creatinine ≦1.2 mg/dL; serum calcium ≦10.5 mg/dL; serum phosphate <4.2 mg/dL; ALT ≦60 IUIL; total serum bilirubin <2 mg/dL. Exclusion criteria included pregnancy, history of hypercalcemia, kidney stones, heart failure or significant heart disease including myocardial infarction in the last 3 months, known cardiac ejection fraction less than 30%, current digoxin therapy, thiazide diuretic therapy within 7 days, bisphosphonate treatment within 4 weeks, systemic steroid therapy within 2 weeks, and unwillingness or inability to stop all magnesium containing antacids, bile resin binding drugs, or calcium supplements for the duration of the study.
as §1
After completing the four week treatment period, patients were monitored for four additional weeks. Serum calcium was checked in weeks 5 and 7 and tumor measurements were obtained in week 7. All toxicities were graded according to NCI Common Toxicity Criteria. Response was assessed according to WHO guidelines.

[4] = Trial of weekly pulse oral calcitriol: serum calcium, serum phosphate, 24 hour urinary calcium; assay type: in vivo, human; details: for Mean serum phosphate: 3.43 (SD 0.56) prior to treatment; for Mean serum calcium: 9.55 (SD 0.57) prior to treatment
Method: as §1, §2

[5] = test system: LNCaP human prostate cancer cells; details: LNCaP cells in vitro, Skowronski et al., cited from earlier work
[6] = Trial of weekly pulse oral calcitriol: toxicities graded by NCI Common Toxicity Criteria; assay type: in vivo, human
Method: as §3, §1, §2
After completing the four week treatment period, patients were monitored for four additional weeks. Serum calcium was checked in weeks 5 and 7 and tumor measurements were obtained in week 7. […] Response was assessed according to WHO guidelines. […]

[7] = test system: breast carcinoma metastatic to the skeleton; test: Case history: treatment of breast cancer with weekly pulse calcitriol; assay type: in vivo, human; details: 11 mcg po on day 1, 8, 15, 22; for serum tumor marker CA15-3: 445 pre-treatment
Source text: In this example, a person with breast carcinoma metastatic to numerous sites in the skeleton received a dose of 11 mcg of calcitriol (Rocaltrol, Roche) administered as […] (0.5 mcg each tablet) divided into four nearly equal doses given in hour one, two, three and four. The patient received this same therapy on day 1, 8, 15 and 22, and then was observed on study until day 56, and tolerated the treatment well. […] Objective benefits included a progressive decrease in the serum tumor marker CA15-3 from 445 (pre-treatment) to 365 (day 27), 365 (day 48) and 320 (day 70). […] No new lesions or pathologic fractures identified were identified by day 64.

[8] = cited from earlier work
[9] = relative to calcitriol = 1; cited from earlier work
[10] = single oral dose of 4 mcg, healthy volunteers, Mason et al.

C=C1/C(=C\C=C2/CCC[C@]3(C)[C@@H]([C@H](C)CCCC(C)(C)O)CC[C@@H]23)C[C@@H](O)C[C@@H]1O [calcitriol, 1α,25-dihydroxycholecalciferol]
Serum 1,25-dihydroxyvitamin D trough levels ([1]; 48 hours, normal range 0.05-0.16 nM): returned to normal or near normal levels by 48 hours | Mean peak 1,25-dihydroxyvitamin D level ([1]; dose level 0.06 μg/kg po over four hours, 1 patient): 0.71 nM | Mean 48 hour 1,25-dihydroxyvitamin D level ([1]; dose level 0.06 μg/kg po): 0.27 | Mean peak 1,25-dihydroxyvitamin D level ([1]; dose level 0.24 μg/kg po over four hours, 1 patient): 2.27 nM | Mean 48 hour 1,25-dihydroxyvitamin D level ([1]; dose level 0.24 μg/kg po): 0.21 | Mean peak 1,25-dihydroxyvitamin D level ([1]; dose level 0.48 μg/kg po over four hours, 2 patients): 4.11 nM | Mean 48 hour 1,25-dihydroxyvitamin D level ([1]; dose level 0.48 μg/kg po): 0.23 | Mean peak 1,25-dihydroxyvitamin D level ([1]; dose level 0.80 μg/kg po over four hours, 1 patient): 3.53 nM | Mean peak 1,25-dihydroxyvitamin D level ([1]; dose level 0.96 μg/kg po over four hours, 1 patient): 3.83 nM | Mean peak 1,25-dihydroxyvitamin D level ([1]; dose level 1.60 μg/kg po over four hours, 2 patients): 3.65 nM | Mean peak 1,25-dihydroxyvitamin D level ([1]; dose level 1.92 μg/kg po over four hours, 1 patient): 3.34 nM | Mean peak 1,25-dihydroxyvitamin D level ([1]; dose level 2.00 μg/kg po over four hours, 6 patients): 4.07 nM | Mean 48 hour 1,25-dihydroxyvitamin D level ([1]; dose level 2.00 μg/kg po): 0.26 | Mean peak 1,25-dihydroxyvitamin D level ([1]; dose level 2.80 μg/kg po over four hours, 2 patients): 2.96 nM | effect of dose escalation beyond 0.48 μg/kg on peak calcitriol levels ([1]; dose levels up to 2.80 μg/kg po): did not result in further increases in peak calcitriol levels | concentration at 2 h ([1]; male, human, plasma, melanoma patient, 37 mcg po in four hourly doses, sample two hours after the last dose, week one, normal controls 21 to 65 pg/ml, read-out: level of calcitriol in plasma): 1.83 ng/mL | Peak blood levels of calcitriol above the upper limit of normal ([1]; pulsed weekly administration): about 25 fold | clearance of calcitriol from the blood ([1]; weekly pulse schedule): essentially completely cleared from the blood by day 3 | peak blood calcitriol levels in patients ([1]; weekly pulse schedule, highest level seen): up to 8.9 nM | hypercalcemia (ovarian cancer): encountered hypercalcemia | patients who experienced symptomatic hypercalcemia (myelodysplastic syndrome; 18 patients): 4 | patients with minor and transient improvements in the peripheral blood counts (myelodysplastic syndrome): Eight of 18 | patients who experienced hypercalcemia [2]: Thirteen | response [2]: no significant response was demonstrated | decline in serum AFP level ([3]; hepatocellular carcinoma patient, two cycles (0.80 and 1.60 μg/kg)): 70% | patients with measurable disease with evidence of progressive disease ([3]; of eight patients): three | patients without measurable disease with tumor marker or clinical evidence of progressive disease ([3]; of seven patients): three | PSA course in a prostate cancer patient ([3]; two cycles of therapy, rapidly rising PSA prior to enrollment): stable PSA for the entire 16 weeks | patients without measurable disease with no evidence of progression ([3]; weekly pulse calcitriol): Four of seven | patients with measurable disease who had stable disease ([3]; weekly pulse calcitriol, tumor measurements week 7): Five of eight | serum calcium and other chemical and hematological parameters, melanoma patient ([4]; 37 mcg po on day 1, 8, 15, 22): remained normal | Mean serum phosphate ([4]; 24 hours after dose, normal range 2.2-4.2): 3.98 (SD 0.57) mg/dL | Mean serum calcium ([4]; 24 hours after dose, normal range 8.5-10.5): 9.76 (SD 0.63) mg/dL | Mean serum phosphate ([4]; 48 hours after dose, p<0.0001): 3.86 (SD 0.53) mg/dL | Mean serum calcium ([4]; 48 hours after dose, p=0.0002): 9.88 (SD 0.68) mg/dL | time for calcium levels above the normal range to return to normal ([4]; no intervention): ≤ 2 days | 24 hour urinary calcium excretion, range ([4]; on treatment, day 2 of each treatment week, 44-292 prior to treatment): 59 to 594 mg | Mean 24 hour urinary calcium excretion ([4]; on treatment, day 2 of each treatment week, 130 (SD 62) prior to treatment, normal range 100-300): 263 (SD 125) mg | concentration giving measurable growth inhibition [5]: 0.1 nM | pIC50 ([5]; read-out: concentration giving 50% growth inhibition): 9.00 | deaths in the trial ([6]; 15 patients, 20 cycles): No deaths occurred | intermittent dose tolerated without hypercalcemia ([6]; given intermittently): ≤ 0.48 µg/kg | dose-limiting hypercalcemic toxicity ([6]; in vivo): No patient developed dose-limiting hypercalcemic toxicity | Radiologic evaluation of areas of known bony involvement [7]: progressive sclerosis of multiple lesions in the pelvis and right hip | Subjective beneficial effects [7]: a reduction in pain and in analgesia required | serum tumor marker CA15-3 ([7]; day 27): 365 | serum tumor marker CA15-3 ([7]; day 48): 365 | serum tumor marker CA15-3 ([7]; day 70): 320 | peak 1,25-dihydroxyvitamin D serum concentrations ([8]; 2 mcg single oral dose, healthy volunteers, Papapoulus et al.): 0.235 nM and 0.351 nM | patients with a serum calcium above 10.8 ([8]; 4 mcg per day for 4 days, postmenopausal women, no clinically significant hypercalcemia, Geusens et al.): Four of the 27 | peak of stable serum levels of 1,25-dihydroxyvitamin D ([8]; 32 mcg/day for 3 months, patients with osteopetrosis, no hypercalcemia, Key et al.): 2.32 nM | duration of hypercalcemic effect ([8]; in vivo): 3 to 5 days | serum half life ([8]; in vivo): 3 to 6 h | time after administration at which intestinal absorption of calcium begins to increase ([8]; in vivo): 2 h | time of maximal hypercalcemic effect ([8]; in vivo): 10 h | time at which peak serum concentration is reached ([8]; replacement therapy doses): 2 h | peak 1,25-dihydroxyvitamin D serum concentrations [8, 10]: 0.42 nM | serum calcium [8, 10]: no elevation in serum calcium | serum calcium ([8]; up to 2.7 mcg/day for 7 to 15 days, normal volunteers, Brickman et al.): no significant elevations in serum calcium were observed | stable 1,25-dihydroxyvitamin D serum levels ([8]; up to 3 mcg/day for 6-12 days, normal volunteers, Adams et al.): 0.184 to 0.235 nM | elevation in serum calcium ([8]; up to 3 mcg/day for 6-12 days, patients on a low calcium diet, Adams et al.): None of the patients | calcemic index (CI) [9]: 1
